Tests used:
[1] = test system: XBP-luciferase reporter; assay: In vivo bioluminescence imaging of XBP-luciferase reporter tumor xenografts; set-up: species or system SCID mice
Description: HT1080 fibrosarcoma cells (2×10^6) stably expressing the XBP-luciferase reporter were implanted s.c. into severe combined immune deficient (SCID) mice. Ten minutes prior to imaging, mice were injected i.p. with D-luciferin (150 mg/kg) solubilized in PBS. Optical bioluminescence imaging was performed using the IVIS charged-coupled device camera system (Caliper Life Sciences, Hopkinton, Mass.). Mice were imaged for 1-4 minutes per acquisition scan. Signal intensities were analyzed using Living Image software (Caliper).
A. Irestatin 9389 impairs IRE1α activity in implanted tumor xenografts. Equal numbers (2×10^6) of XBP-luciferase or CMV-luciferase reporter cells were implanted s.c. into SCID mice. After one week, mice were treated with irestatin 9389 (50 mg/kg), followed by optical bioluminescence imaging. B. Inhibition of tumor growth by irestatin 9389. HT1080 s.c. tumor xenografts were established in SCID mice and allowed to reach a mean volume of 150 mm^3 before treatment. Irestatin 9389 (50 mg/kg) or vehicle control was administered q 2d by i.p. injection and continued for 2 weeks, for a total of 6 doses. Tumor volumes were calculated based on caliper measurements taken every 3-5 days. Data points represent the mean volume calculated from at least 7 tumors per group, with SEM shown in one direction. Mean mouse weights+/−SEM are shown in bottom graph. C.
The increased sensitivity of irestatin-treated cells to hypoxic stress in vitro indicate that selective inhibition of IRE1α signaling could impact tumor growth. […] In contrast, XBP-1s was not detected in normal pancreas specimens (0/20), and infrequently observed in chronic pancreatitis (1/29) (FIG. 15). To explore the effects to irestatin 9389 in vivo, we first established animal dosing parameters using real-time bioluminescence imaging of SCID mice that had been implanted subcutaneously (s.c.) with tumor cells stably expressing the XBP-luciferase reporter. […] The XBP-luciferase signal returned to basal levels by 24 hours after treatment. […] (FIG. 16).

[2] = Potential toxicities of irestatin 9389, increasing i.p. doses; assay type: in vivo
Description: Female 4-6 week-old SCID (B6.CB 17) mice supplied by Stanford University Animal Facility were housed in the same facility (American Association of Laboratory Animal Care-approved) with 12 hour light cycles. Food and water were provided ad libitum. All experiments were approved by the institutional care and use committee. The potential toxicities of irestatin 9389 were examined in SCID mice injected i.p. once daily over 4 consecutive days with increasing doses of irestatin 9389 or vehicle control. […] For xenografts, 2×10^6 HT1080 fibrosarcoma cells were resuspended in 50-75 μl PBS and injected s.c. in the dorsal flanks of host mice. When the implanted tumors reached a mean volume of ˜150 mm^3, mice were randomly assigned into different treatment groups. Mice were dosed by i.p. bolus injection with either vehicle (50% DMSO, 20% cremophor EL, 30% ethanol) or irestatin 9389 (50 mg/kg). Tumors (6-8 per group) were measured every 2-4 days with calipers. Tumor volume was calculated using the formula [(W^2×L) 0.52] where W=width and L=length.

Compound: Cc1csc(NC(=O)CSc2nc3c(c(C(F)(F)F)c2C#N)CCC3)n1 [Compound 9389]
- time by which XBP-luciferase signal returned to basal levels ([1]; after treatment, 50-60 mg/kg): ≤ 24 h
- duration of XBP-luciferase reporter inhibition after the injection ([1]; single doses of 50-60 mg/kg): 6 to 8 h
- inhibition of XBP-luciferase reporter in tumors ([1]; single doses of 50-60 mg/kg): robustly inhibited
- toxicity ([2]; dosing regimen of 50-60 mg/kg i.p.): without apparent toxicity
- dosing regimen of 50-60 mg/kg as share of the LD50 value ([2]; female, SCID (B6.CB 17), mouse, in vivo, 4 days): 75%

— US20130150399A1, “INHIBITORS OF THE UNFOLDED PROTEIN RESPONSE AND METHODS FOR THEIR USE” (The Board of Trustees of the Leland Stanford Junior …, priority 2006, published 2013)
